In patent US9580444B2, “Polycyclic pyrazolinone derivative and herbicide comprising same as effective component thereof” (priority 2013, dated 2017):

Experiments:
Assay in all cases: Test Example-1: herbicidal effect by a treatment before weeds are generated under submerged conditions
Assay type in all cases: in vivo
Conditions in all cases: 500 g a.i/ha, pre-emergence treatment, about 15 days after treatment, score 0-5
[1] = tested on: Cyperus difformis (smallflower umbrella plant)
Experimental: (§1) Using the formulation prepared according to the methods described above, the herbicidal effect of the bicyclic pyrazolinone derivative of the invention according to the methods shown in Test Examples below was examined. The herbicidal effect with respect to the test weeds or the phytotoxicity with respect to the test crops was examined according to the following criteria, and evaluated in six stage scores of 0 to 5.
(§2) A plastic cup of 30 cm^2 was filled with paddy soil, soil puddling was performed, seeds of Echinochloa oryzicola (barnyard grass), Cyperus difformis (smallflower umbrella plant), Monochoria vaginalis (monochoria), Scirpus juncoides (bulrush), and Eleocharis acicularis (needle spikerush), and Lindernia procumbens (common false pimpernel), Rotala indica (indian toothcup), Elatine triandra (waterwort) as other annual broad leaf weeds were seeded therein, and kept in a submerged state. A wettable powder or an emulsifiable concentrate of the compound of the present invention prepared according to Formulation Example was diluted on the weed seeding day, and a submersing treatment was performed so as to be a predetermined dosage. The herbicidal effect with respect to the test weeds about 15 days after the treatment was evaluated according to the evaluation criteria in six stages of 0 to 5 described above.

[2] = tested on: Eleocharis acicularis (needle spikerush)
Experimental: as §1, §2

[3] = tested on: Scirpus juncoides (bulrush)
Experimental: as §1, §2

[4] = tested on: Monochoria vaginalis (monochoria)
Experimental: as §1, §2

[5] = tested on: other annual broad leaf weeds (Lindernia procumbens, Rotala indica, Elatine triandra)
Experimental: as §1, §2

[6] = tested on: Echinochloa oryzicola (barnyard grass)
Experimental: as §1, §2

| SMILES | Herbicidal effect Cyperus difformis [1] | Herbicidal effect Eleocharis acicularis [2] | Herbicidal effect Scirpus juncoides [3] | Herbicidal effect Monochoria vaginalis [4] | Herbicidal effect Broadleaf weed [5] | Herbicidal effect Echinochloa oryzicola [6] |
| --- | --- | --- | --- | --- | --- | --- |
| O=c1c(-c2cc(OC3C=CCCC3)c(Cl)cc2F)c(Cl)n2n1CCCC2 (stereo not drawn) [Example 1-232] | 5 (Herbicidal effect/phytotoxicity was 90% or greater) | 5 (Herbicidal effect/phytotoxicity was 90% or greater) | 5 (Herbicidal effect/phytotoxicity was 90% or greater) | 5 (Herbicidal effect/phytotoxicity was 90% or greater) | 5 (Herbicidal effect/phytotoxicity was 90% or greater) | 5 (Herbicidal effect/phytotoxicity was 90% or greater) |
| CC(C)CCOc1cc(-c2c(Cl)n3n(c2=O)CCCC3)c(F)cc1F [Example 1-93] | 5 (Herbicidal effect/phytotoxicity was 90% or greater) | 5 (Herbicidal effect/phytotoxicity was 90% or greater) | 5 (Herbicidal effect/phytotoxicity was 90% or greater) | 5 (Herbicidal effect/phytotoxicity was 90% or greater) | 5 (Herbicidal effect/phytotoxicity was 90% or greater) | 5 (Herbicidal effect/phytotoxicity was 90% or greater) |
| C=C(C)COC(=O)C=C(COc1cc(-c2c(Cl)n3n(c2=O)CCCC3)c(F)cc1Cl)OCCC [Compound 2-33] | 5 (Herbicidal effect/phytotoxicity was 90% or greater) | 5 (Herbicidal effect/phytotoxicity was 90% or greater) | 5 (Herbicidal effect/phytotoxicity was 90% or greater) | 5 (Herbicidal effect/phytotoxicity was 90% or greater) | 5 (Herbicidal effect/phytotoxicity was 90% or greater) | 5 (Herbicidal effect/phytotoxicity was 90% or greater) |
| CCCOC(=CC(=O)OC)COc1cc(-c2c(Cl)n3n(c2=O)CCCC3)c(F)cc1Cl (mixture of isomers) [Compound 2-13] | 5 (Herbicidal effect/phytotoxicity was 90% or greater) | 5 (Herbicidal effect/phytotoxicity was 90% or greater) | 5 (Herbicidal effect/phytotoxicity was 90% or greater) | 5 (Herbicidal effect/phytotoxicity was 90% or greater) | 5 (Herbicidal effect/phytotoxicity was 90% or greater) | 5 (Herbicidal effect/phytotoxicity was 90% or greater) |
| C=CCOc1ccccc1Oc1cc(-c2c(Cl)n3n(c2=O)CCCC3)c(F)cc1Cl [Compound 3-27] | 5 (Herbicidal effect/phytotoxicity was 90% or greater) | 5 (Herbicidal effect/phytotoxicity was 90% or greater) | 5 (Herbicidal effect/phytotoxicity was 90% or greater) | 5 (Herbicidal effect/phytotoxicity was 90% or greater) | 5 (Herbicidal effect/phytotoxicity was 90% or greater) | 5 (Herbicidal effect/phytotoxicity was 90% or greater) |
| COc1ccc(Oc2cc(-c3c(Cl)n4n(c3=O)CCCC4)c(F)cc2Cl)cc1 [Compound 3-7] | 5 (Herbicidal effect/phytotoxicity was 90% or greater) | 5 (Herbicidal effect/phytotoxicity was 90% or greater) | 5 (Herbicidal effect/phytotoxicity was 90% or greater) | 5 (Herbicidal effect/phytotoxicity was 90% or greater) | 5 (Herbicidal effect/phytotoxicity was 90% or greater) | 5 (Herbicidal effect/phytotoxicity was 90% or greater) |
| C=C(C)COc1cc(-c2c(Cl)n3n(c2=O)CCCC3)c(F)cc1F [Example 1-109] | 5 (Herbicidal effect/phytotoxicity was 90% or greater) | 5 (Herbicidal effect/phytotoxicity was 90% or greater) | 5 (Herbicidal effect/phytotoxicity was 90% or greater) | 5 (Herbicidal effect/phytotoxicity was 90% or greater) | 5 (Herbicidal effect/phytotoxicity was 90% or greater) | 5 (Herbicidal effect/phytotoxicity was 90% or greater) |
| COc1cccc(Oc2cc(-c3c(Cl)n4n(c3=O)CCCC4)c(F)cc2Cl)c1 [Compound 3-5] | 5 (Herbicidal effect/phytotoxicity was 90% or greater) | 5 (Herbicidal effect/phytotoxicity was 90% or greater) | 5 (Herbicidal effect/phytotoxicity was 90% or greater) | 5 (Herbicidal effect/phytotoxicity was 90% or greater) | 5 (Herbicidal effect/phytotoxicity was 90% or greater) | 5 (Herbicidal effect/phytotoxicity was 90% or greater) |
| O=c1c(-c2ccc(Cl)cc2Cl)c(Cl)n2n1CCCC2 [Example 1-280] | 5 (Herbicidal effect/phytotoxicity was 90% or greater) | 5 (Herbicidal effect/phytotoxicity was 90% or greater) | 5 (Herbicidal effect/phytotoxicity was 90% or greater) | 5 (Herbicidal effect/phytotoxicity was 90% or greater) | 5 (Herbicidal effect/phytotoxicity was 90% or greater) | 5 (Herbicidal effect/phytotoxicity was 90% or greater) |
| COc1cc(-c2c(Cl)n3n(c2=O)CCCCC3)c(Cl)cc1Cl [Example 1-293] | 5 (Herbicidal effect/phytotoxicity was 90% or greater) | 5 (Herbicidal effect/phytotoxicity was 90% or greater) | 5 (Herbicidal effect/phytotoxicity was 90% or greater) | 5 (Herbicidal effect/phytotoxicity was 90% or greater) | 5 (Herbicidal effect/phytotoxicity was 90% or greater) | 5 (Herbicidal effect/phytotoxicity was 90% or greater) |
| O=c1c(-c2cc(OC3C=CCCC3)c(F)cc2F)c(Cl)n2n1CCCC2 (stereo not drawn) [Example 1-112] | 5 (Herbicidal effect/phytotoxicity was 90% or greater) | 5 (Herbicidal effect/phytotoxicity was 90% or greater) | 5 (Herbicidal effect/phytotoxicity was 90% or greater) | 5 (Herbicidal effect/phytotoxicity was 90% or greater) | 5 (Herbicidal effect/phytotoxicity was 90% or greater) | 5 (Herbicidal effect/phytotoxicity was 90% or greater) |
